Where a SMILES comes first, the peptide text is derived from it. Bridges are numbered along the chain shown (N, C = ends). [ ]: non-standard residue; d: D form. The star is where a group is joined. 4‑(dimethylamino)benzoyl‑d4 = DMABZK2: N6-(4-(dimethylamino)benzoyl-2,3,5,6-d4)-L-lysine, [2H]c1c([2H])c(N(C)C)c([2H])c([2H])c1C(=O)*; ADTZPA = (S)-2-amino-3-(1-dodecyl-1H-1,2,3-triazol-4-yl)propanoic acid; m‑xylylene = m-xylylene thioether bridge between Cys; Trp(7-aza) = N[C@@H](Cc1c[nH]c2ncccc12)C(=O)O; NMePhe(4-F) = CN[C@@H](Cc1ccc(F)cc1)C(=O)O; PEG4 = NCCOCCOCCOCCOCCC(=O)O; Phg = N[C@H](C(=O)O)c1ccccc1; Tle = CC(C)(C)[C@H](N)C(=O)O; NMeA = CN[C@@H](C)C(=O)O; Pra = C#CC[C@H](N)C(=O)O; Nva = CCC[C@H](N)C(=O)O; AEEA = NCCOCCOCC(=O)O; PEG1 = NCCOCCC(=O)O; Ahx = NCCCCCC(=O)O; Ava = NCCCCC(=O)O; Sar = CNCC(=O)O
tested on: GMPPNP-loaded H-Ras or GTP-loaded K-Ras; experiment: Fluorescence polarization competition assay with TAMRA-labeled probe R4007; assay type: binding, human; details: 120 nM Ras, 30 nM probe R4007, 60 minutes at room temperature; read-out: Probe displacement (nM IC50)
Outline: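 120 nM GMPPNP-loaded H-Ras or GTP-loaded K-Ras was preincubated with 30 nM TAMRA-labeled R4007 probe for 20 min at room temperature in Tris pH 7.5 buffer with MgCl2, EDTA and Triton X-100. Serially diluted competitor was then added for 60 min. Polarization was read at 535/595 nm, with Ki from a one-site Ki fit and IC50 from probe displacement.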

Compound | IC50 [nM]
CCC[C@H](NC(C)=O)C(=O)N[C@H]1CSCc2cccc(c2)CSC[C@@H](C(N)=O)NC(=O)CN(C)C(=O)[C@H](Cc2ccc(F)cc2)N(C)C(=O)[C@H](Cc2ccc(O)cc2)NC(=O)[C@H](Cc2c[nH]c3ncccc23)NC(=O)[C@H](c2ccccc2)NC(=O)[C@H](C)N(C)C(=O)[C@H](CCN)NC(=O)[C@H](C)NC(=O)[C@H](C(C)(C)C)NC(=O)[C@H](Cc2ccc(O)cc2)NC1=O (relative stereo) [Compound R4140, ACE-NVA-CYS*-TYR-TBG-ALA-DBA-NMA-PHG-7AW-TYR-MFF-SAR-CYS*-NH2] | 608
C=CC(=O)NCCC[C@H]1C(=O)N[C@@H](c2ccccc2)C(=O)N[C@@H](Cc2c[nH]c3ncccc23)C(=O)N[C@@H](Cc2ccc(O)cc2)C(=O)N(C)[C@@H](Cc2ccc(F)cc2)C(=O)N(C)CC(=O)N[C@H](C(N)=O)CSCc2cccc(c2)CSC[C@H](NC(=O)[C@H](CCC)NC(C)=O)C(=O)N[C@@H](Cc2ccc(O)cc2)C(=O)N[C@@H](C(C)(C)C)C(=O)N[C@@H](C)C(=O)N[C@@H](Cc2c[nH]cn2)C(=O)N1C (relative stereo) [Compound R4142, ACE-NVA-CYS*-TYR-TBG-ALA-HIS-MORAC-PHG-7AW-TYR-MFF-SAR-CYS*-NH2] | 1240
CCC[C@H](NC(C)=O)C(=O)N[C@H]1CSCc2cccc(c2)CSC[C@@H](C(=O)NCC(=O)NCC(=O)NCC(=O)N[C@@H](CS)C(=O)N[C@H](C(=O)N[C@H](C(=O)N[C@@H](CCSC)C(=O)O)[C@@H](C)CC)C(C)C)NC(=O)CN(C)C(=O)[C@H](C)N(C)C(=O)[C@H](Cc2ccc(O)cc2)NC(=O)[C@H](Cc2c[nH]c3ncccc23)NC(=O)[C@H](C)NC(=O)[C@H](C)N(C)C(=O)[C@H](Cc2c[nH]cn2)NC(=O)[C@H](CCCCN)NC(=O)[C@H](C(C)(C)C)NC(=O)[C@H](Cc2ccc(O)cc2)NC1=O (relative stereo) [Compound R4143, ACE-NVA-CYS*-TYR-TBG-LYS-HIS-NMA-ALA-7AW-TYR-NMA-SAR-CYS*-GLY-GLY-GLY-CYS-VAL-ILE-MET] | 1640
CCC[C@H](NC(C)=O)C(=O)N[C@H]1CSCc2cccc(c2)CSC[C@@H](C(N)=O)NC(=O)CN(C)C(=O)[C@H](Cc2ccc(F)cc2)N(C)C(=O)[C@H](Cc2ccc(O)cc2)NC(=O)[C@H](Cc2c[nH]c3ncccc23)NC(=O)[C@H](c2ccccc2)NC(=O)[C@H](C)N(C)C(=O)[C@H]2CCCN2C(=O)[C@H](CCCCN)NC(=O)[C@H](C(C)(C)C)NC(=O)[C@H](Cc2ccc(O)cc2)NC1=O (relative stereo) [Compound R4144, ACE-NVA-CYS*-TYR-TBG-LYS-DPRO-NMA-PHG-7AW-TYR-MFF-SAR-CYS*-NH2] | 1960
C=CC(=O)NCC[C@@H]1NC(=O)[C@H](C)NC(=O)[C@H](C(C)(C)C)NC(=O)[C@H](Cc2ccc(O)cc2)NC(=O)[C@@H](NC(=O)[C@H](CCC)NC(C)=O)CSCc2cccc(c2)CSC[C@@H](C(N)=O)NC(=O)CN(C)C(=O)[C@H](Cc2ccc(F)cc2)N(C)C(=O)[C@H](Cc2ccc(O)cc2)NC(=O)[C@H](Cc2c[nH]c3ncccc23)NC(=O)[C@H](c2ccccc2)NC(=O)[C@H](C)N(C)C1=O (relative stereo) [Compound R4146, ACE-NVA-CYS*-TYR-TBG-ALA-DABAC1-NMA-PHG-7AW-TYR-MFF-SAR-CYS*-NH2] | 3390
CCC[C@H](NC(C)=O)C(=O)N[C@H]1CSCc2cccc(c2)CSC[C@@H](C(N)=O)NC(=O)CN(C)C(=O)[C@H](Cc2ccc(F)cc2)N(C)C(=O)[C@H](Cc2ccc(O)cc2)NC(=O)[C@H](Cc2c[nH]c3ncccc23)NC(=O)[C@H](C2CCCCC2)NC(=O)[C@H](C)N(C)C(=O)[C@H](Cc2c[nH]cn2)NC(=O)[C@H](CCCCN)NC(=O)[C@H](C(C)(C)C)NC(=O)[C@H](Cc2ccc(O)cc2)NC1=O (relative stereo) [Compound R4149, ACE-NVA-CYS*-TYR-TBG-LYS-HIS-NMA-CHG-7AW-TYR-MFF-SAR-CYS*-NH2] | 6260
CCC[C@H](NC(C)=O)C(=O)N[C@H]1CSCc2cccc(c2)CSC[C@@H](C(N)=O)NC(=O)CN(C)C(=O)[C@H](Cc2ccc(F)cc2)N(C)C(=O)[C@H](Cc2ccc(O)cc2)NC(=O)[C@H](Cc2c[nH]c3ncccc23)NC(=O)[C@H](c2ccccc2)NC(=O)[C@H](C)N(C)C(=O)[C@H](Cc2c[nH]cn2)NC(=O)[C@H](CCCCN)NC(=O)[C@H](C(C)(C)C)NC(=O)[C@H](C)NC1=O (relative stereo) [Compound R4152, ACE-NVA-CYS*-ALA-TBG-LYS-HIS-NMA-PHG-7AW-TYR-MFF-SAR-CYS*-NH2] | 28300
CCC[C@H](NC(C)=O)C(=O)N[C@H]1CSCc2cccc(c2)CSC[C@@H](C(N)=O)NC(=O)CN(C)C(=O)[C@H](Cc2ccc(F)cc2)N(C)C(=O)[C@H](Cc2ccc(O)cc2)NC(=O)[C@H](Cc2c[nH]c3ncccc23)NC(=O)[C@@H](c2ccccc2)NC(=O)[C@H](C)N(C)C(=O)[C@H](C)NC(=O)[C@H](CCCCN)NC(=O)[C@H](C(C)(C)C)NC(=O)[C@H](Cc2ccc(O)cc2)NC1=O (relative stereo) [Compound R4153, ACE-NVA-CYS*-TYR-TBG-LYS-ALA-NMA-DPHG-7AW-TYR-MFF-SAR-CYS*-NH2] | 36400
C#CC[C@@H]1NC(=O)CN(C)C(=O)[C@H](Cc2ccc(F)cc2)N(C)C(=O)[C@H](Cc2ccc(O)cc2)NC(=O)[C@H](Cc2c[nH]c3ncccc23)NC(=O)[C@H](c2ccccc2)NC(=O)[C@H](C)N(C)C(=O)[C@H](Cc2c[nH]cn2)NC(=O)[C@H](CCCCN)NC(=O)[C@H](C(C)(C)C)NC(=O)[C@H](Cc2ccc(O)cc2)NC(=O)COCCOCCNC1=O [Compound R4130, PEG1*-TYR-TBG-LYS-HIS-NMA-PHG-7AW-TYR-MFF-SAR-PRG*] (cyclo([AEEA]Y[Tle]KH[NMeA][Phg][Trp(7-aza)]Y[NMePhe(4-F)][Sar][Pra])) | 268
C#CC[C@@H]1NC(=O)CN(C)C(=O)[C@H](Cc2ccc(F)cc2)N(C)C(=O)[C@H](Cc2ccc(O)cc2)NC(=O)[C@H](Cc2c[nH]c3ncccc23)NC(=O)[C@H](c2ccccc2)NC(=O)[C@H](C)N(C)C(=O)[C@H](Cc2c[nH]cn2)NC(=O)[C@H](CCCCN)NC(=O)[C@H](C(C)(C)C)NC(=O)[C@H](Cc2ccc(O)cc2)NC(=O)CCOCCNC1=O [Compound R4139, AEP*-TYR-TBG-LYS-HIS-NMA-PHG-7AW-TYR-MFF-SAR-PRG*] (cyclo([PEG1]Y[Tle]KH[NMeA][Phg][Trp(7-aza)]Y[NMePhe(4-F)][Sar][Pra])) | 522

Continued, values first:

IC50 [nM] | Compound
695 | CCC[C@H](NC(C)=O)C(=O)N[C@H]1CSCc2cccc(c2)CSC[C@@H](C(N)=O)NC(=O)CN(C)C(=O)[C@H](Cc2ccc(F)cc2)N(C)C(=O)[C@H](Cc2ccc(O)cc2)NC(=O)[C@H](Cc2c[nH]c3ncccc23)NC(=O)[C@H](c2ccccc2)NC(=O)[C@H](C)N(C)C(=O)[C@H](CN)NC(=O)[C@H](C)NC(=O)[C@H](C(C)(C)C)NC(=O)[C@H](Cc2ccc(O)cc2)NC1=O (relative stereo) [Compound R4141, ACE-NVA-CYS*-TYR-TBG-ALA-DAP-NMA-PHG-7AW-TYR-MFF-SAR-CYS*-NH2]
2800 | C#CC[C@@H]1NC(=O)CN(C)C(=O)[C@H](Cc2ccc(F)cc2)N(C)C(=O)[C@H](Cc2ccc(O)cc2)NC(=O)[C@H](Cc2c[nH]c3ncccc23)NC(=O)[C@H](c2ccccc2)NC(=O)[C@H](C)N(C)C(=O)[C@H](Cc2c[nH]cn2)NC(=O)[C@H](CCCCN)NC(=O)[C@H](C(C)(C)C)NC(=O)[C@H](Cc2ccc(O)cc2)NC1=O (relative stereo) [Compound R4145, TYR*-TBG-LYS-HIS-NMA-PHG-7AW-TYR-MFF-SAR-PRG*]
2070 | C=CC(=O)NCc1cn(C[C@H](NC(=O)[C@H](C)NC(=O)[C@@H](NC(=O)[C@H](Cc2ccc(O)cc2)NC(=O)[C@H](CO)NC(=O)[C@H](CCC)NC(C)=O)C(C)(C)C)C(=O)N(C)[C@@H](C)C(=O)NC(C(=O)N[C@@H](Cc2c[nH]c3ncccc23)C(=O)N[C@@H](Cc2ccc(O)cc2)C(=O)N(C)[C@@H](Cc2ccc(F)cc2)C(=O)N(C)CC(=O)N[C@@H](CO)C(N)=O)c2ccccc2)nn1 (some centres unmarked) [Compound R4005, ACE-NVA-SER-TYR-TBG-ALA-DAPTZAC1-NMA-RPHG-7AW-TYR-MFF-SAR-SER-NH2]
215 | C#CC[C@@H]1NC(=O)CN(C)C(=O)[C@H](Cc2ccc(F)cc2)N(C)C(=O)[C@H](Cc2ccc(O)cc2)NC(=O)[C@H](Cc2c[nH]c3ncccc23)NC(=O)[C@H](c2ccccc2)NC(=O)[C@H](C)N(C)C(=O)[C@H](Cc2c[nH]cn2)NC(=O)[C@H](CCCCN)NC(=O)[C@H](C(C)(C)C)NC(=O)[C@H](Cc2ccc(O)cc2)NC(=O)CCCCNC1=O [Compound R4128, APA*-TYR-TBG-LYS-HIS-NMA-PHG-7AW-TYR-MFF-SAR-PRG*] (cyclo([Ava]Y[Tle]KH[NMeA][Phg][Trp(7-aza)]Y[NMePhe(4-F)][Sar][Pra]))
411 | C#CC[C@@H]1NC(=O)CN(C)C(=O)[C@H](Cc2ccc(F)cc2)N(C)C(=O)[C@H](Cc2ccc(O)cc2)NC(=O)[C@H](Cc2c[nH]c3ncccc23)NC(=O)[C@H](c2ccccc2)NC(=O)[C@H](C)N(C)C(=O)[C@H](Cc2c[nH]cn2)NC(=O)[C@H](CCCCN)NC(=O)[C@H](C(C)(C)C)NC(=O)[C@H](Cc2ccc(O)cc2)NC(=O)CCCCCNC1=O [Compound R4137, AHX*-TYR-TBG-LYS-HIS-NMA-PHG-7AW-TYR-MFF-SAR-PRG*] (cyclo([Ahx]Y[Tle]KH[NMeA][Phg][Trp(7-aza)]Y[NMePhe(4-F)][Sar][Pra]))
7640 | ACE-NVA-CYS*-TYR-TBG-DMABZK2-HIS-NMA-PHG-7AW-TYR-MFF-SAR-CYS*-NH2 (Ac-[Nva]CY[Tle]K(4‑(dimethylamino)benzoyl‑d4)H[NMeA][Phg][Trp(7-aza)]Y[NMePhe(4-F)][Sar]C-NH2; linker 2-13 via m‑xylylene) [Compound R4150, cyclized by a m-xylylene thioether bridge]
5190 | ACE-NVA-CYS*-TYR-TBG-LYS-HIS-NMA-PHG-7AW-TYR-MFF-SAR-CYS*-PEG4PA-ADTZPA-NH2 (Ac-[Nva]CY[Tle]KH[NMeA][Phg][Trp(7-aza)]Y[NMePhe(4-F)][Sar]C-{PEG4-ADTZPA-NH2}; linker 2-13 via m‑xylylene) [Compound R4147, cyclized by a m-xylylene thioether bridge]
